Key:
Assay in all cases: Test B pre-/postemergence plant response
Type in all cases: in vivo
[1] = system: Italian ryegrass (Lolium multiflorum); details: for Ryegrass, Italian plant response rating: postemergence, 0-100 scale
Summary of the method: (§1)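 Preemergence and postemergence (plants 2-18 cm, 1- to 4-leaf stage) applications used test chemicals in a non-phytotoxic solvent with surfactant. Plants were held in a greenhouse 13 to 15 days, then rated visually against controls on a 0-100 scale (0 no effect, 100 complete control).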

[2] = system: catchweed bedstraw (Galium aparine); details: Preemergence
Summary of the method: as §1

[3] = system: cocklebur (Xanthium strumarium)
Summary of the method: as §1

[4] = system: common (oilseed) sunflower (Helianthus annuus); details: Preemergence
Summary of the method: as §1

[5] = system: common ragweed (Ambrosia elation); details: for Ragweed plant response rating: postemergence, 0-100 scale
Summary of the method: as §1

[6] = system: downy bromegrass (Bromus tectorum)
Summary of the method: as §1

[7] = system: goosegrass (Eleusine indica); details: for Goosegrass plant response rating: postemergence, 0-100 scale
Summary of the method: as §1

kochia (Kochia scoparia) = details: for Kochia plant response rating: postemergence, 0-100 scale
Summary of the method: as §1

[8] = system: large crabgrass (Digitaria sanguinalis)
Summary of the method: as §1

[9] = system: pigweed (Amaranthus retroflexus); details: for Pigweed plant response rating: postemergence, 0-100 scale
Summary of the method: as §1

soybean (Glycine max) = details: for Soybean plant response rating: postemergence, 0-100 scale
Summary of the method: as §1

[10] = system: surinam grass (Brachiaria decumbens); details: for Surinam Grass plant response rating: postemergence, 0-100 scale
Summary of the method: as §1

[11] = system: woolly cupgrass (Eriochloa villosa)
Summary of the method: as §1

[12] = Postemergence, 31 g ai/ha, scale 0 to 100, 0 no effect, 100 complete control
[13] = Postemergence, 62 g ai/ha, scale 0 to 100
[14] = Postemergence, 125 g ai/ha, scale 0 to 100
[15] = Postemergence, 250 g ai/ha, scale 0 to 100
[16] = Preemergence, 31 g ai/ha, 0 to 100 scale, 0 no effect, 100 complete control
[17] = Preemergence, 62 g ai/ha, scale 0 to 100
[18] = Preemergence, 125 g ai/ha, scale 0 to 100
[19] = Preemergence, 250 g ai/ha, scale 0 to 100
[20] = 31 g ai/ha, 0 to 100 scale, 0 no effect, 100 complete control
[21] = Postemergence, 31 g ai/ha, scale 0 to 100
[22] = Postemergence, 62 g ai/ha, scale 0 to 100, 0 no effect, 100 complete control
[23] = 8 g ai/ha, postemergence, 0-100 scale
[24] = Postemergence, 16 g ai/ha, scale 0 to 100

Cc1cc(-c2ccc(Br)cc2)nn1-c1c(O)cnn(C)c1=O [Compound 4]
85: Plant response rating, Galium ([2]; 125 g ai/ha, scale 0 to 100) | Plant response rating, Goosegrass [7, 16] | Plant response rating, Cupgrass, Woolly [11, 16] | Plant response rating, Cupgrass, Woolly [11, 17]
90: Plant response rating, Galium ([2]; 250 g ai/ha, scale 0 to 100) | Plant response rating, Soybean (soybean (Glycine max); [14]) | Plant response rating, Soybean (soybean (Glycine max); [15])
0: Plant response rating, Galium [2, 20] | Plant response rating, Galium ([2]; 62 g ai/ha, scale 0 to 100) | Plant response rating, Cocklebur [3, 12] | Plant response rating, Cocklebur [3, 13] | Plant response rating, Cocklebur [3, 14] | Plant response rating, Cocklebur [3, 15] | Plant response rating, Cocklebur [3, 16] | Plant response rating, Cocklebur [3, 17] | Plant response rating, Cocklebur [3, 18] | Plant response rating, Sunflower [4, 20] | Plant response rating, Sunflower ([4]; 62 g ai/ha, scale 0 to 100) | Plant response rating, Sunflower ([4]; 125 g ai/ha, scale 0 to 100) | Plant response rating, Ragweed [5, 12] | Plant response rating, Ragweed [5, 13] | Plant response rating, Ragweed [5, 16] | Plant response rating, Ragweed [5, 17] | Plant response rating, Ragweed [5, 18] | Plant response rating, Ragweed [5, 19] | Plant response rating, Bromegrass, Downy [6, 12] | Plant response rating, Kochia (kochia (Kochia scoparia); [12]) | Plant response rating, Kochia (kochia (Kochia scoparia); [13]) | Plant response rating, Kochia (kochia (Kochia scoparia); [16]) | Plant response rating, Kochia (kochia (Kochia scoparia); [18]) | Plant response rating, Kochia (kochia (Kochia scoparia); [19]) | Plant response rating, Pigweed [9, 12] | Plant response rating, Pigweed [9, 13] | Plant response rating, Pigweed [9, 19] | Plant response rating, Soybean (soybean (Glycine max); [16]) | Plant response rating, Soybean (soybean (Glycine max); [17]) | Plant response rating, Soybean (soybean (Glycine max); [18])
70: Plant response rating, Sunflower ([4]; 250 g ai/ha, scale 0 to 100) | Plant response rating, Bromegrass, Downy [6, 16] | Plant response rating, Bromegrass, Downy [6, 17] | Plant response rating, Kochia (kochia (Kochia scoparia); [15])
20: Plant response rating, Bromegrass, Downy [6, 14] | Plant response rating, Soybean (soybean (Glycine max); [12]) | Plant response rating, Soybean (soybean (Glycine max); [19])
80: Plant response rating, Ragweed [5, 15]
5: Plant response rating, Bromegrass, Downy [6, 13]
40: Plant response rating, Bromegrass, Downy [6, 15]
98: Plant response rating, Bromegrass, Downy [6, 18]
30: Plant response rating, Cocklebur [3, 19] | Plant response rating, Soybean (soybean (Glycine max); [13])
35: Plant response rating, Pigweed [9, 14]
100: Plant response rating, Ryegrass, Italian [1, 12] | Plant response rating, Ryegrass, Italian [1, 13] | Plant response rating, Ryegrass, Italian [1, 14] | Plant response rating, Ryegrass, Italian [1, 15] | Plant response rating, Ryegrass, Italian [1, 16] | Plant response rating, Ryegrass, Italian [1, 17] | Plant response rating, Ryegrass, Italian [1, 18] | Plant response rating, Ryegrass, Italian [1, 19] | Plant response rating, Bromegrass, Downy ([6]; Preemergence, 250 g ai/ha, scale 0 to 100 (0 no effect, 100 complete control)) | Plant response rating, Goosegrass [7, 13] | Plant response rating, Goosegrass [7, 14] | Plant response rating, Goosegrass [7, 15] | Plant response rating, Goosegrass [7, 17] | Plant response rating, Goosegrass [7, 18] | Plant response rating, Goosegrass [7, 19] | Plant response rating, Crabgrass, Large [8, 12] | Plant response rating, Crabgrass, Large [8, 13] | Plant response rating, Crabgrass, Large [8, 14] | Plant response rating, Crabgrass, Large [8, 15] | Plant response rating, Crabgrass, Large [8, 16] | Plant response rating, Crabgrass, Large [8, 17] | Plant response rating, Crabgrass, Large [8, 18] | Plant response rating, Crabgrass, Large [8, 19] | Plant response rating, Surinam Grass [10, 12] | Plant response rating, Surinam Grass [10, 13] | Plant response rating, Surinam Grass [10, 14] | Plant response rating, Surinam Grass [10, 15] | Plant response rating, Surinam Grass [10, 16] | Plant response rating, Surinam Grass [10, 17] | Plant response rating, Surinam Grass [10, 18] | Plant response rating, Surinam Grass [10, 19] | Plant response rating, Cupgrass, Woolly [11, 12] | Plant response rating, Cupgrass, Woolly [11, 13] | Plant response rating, Cupgrass, Woolly [11, 14] | Plant response rating, Cupgrass, Woolly [11, 15] | Plant response rating, Cupgrass, Woolly [11, 18] | Plant response rating, Cupgrass, Woolly [11, 19]
50: Plant response rating, Ragweed [5, 14] | Plant response rating, Pigweed [9, 15]
95: Plant response rating, Goosegrass [7, 12]
60: Plant response rating, Kochia (kochia (Kochia scoparia); [14])

Cc1cc(-c2ccc(C(F)(F)F)cc2)nn1-c1c(OC(=O)C(C)(C)C)cnn(C)c1=O [Compound 2]
75: Plant response rating, Ryegrass, Italian [1, 16]
70: Plant response rating, Bromegrass, Downy [6, 18] | Plant response rating, Pigweed [9, 18] | Plant response rating, Pigweed [9, 19] | Plant response rating, Cupgrass, Woolly [11, 16]
85: Plant response rating, Surinam Grass [10, 16] | Plant response rating, Surinam Grass [10, 17]
50: Plant response rating, Goosegrass [7, 16] | Plant response rating, Kochia (kochia (Kochia scoparia); [19])
100: Plant response rating, Ryegrass, Italian [1, 17] | Plant response rating, Ryegrass, Italian [1, 18] | Plant response rating, Ryegrass, Italian [1, 19] | Plant response rating, Galium [2, 20] | Plant response rating, Galium ([2]; 62 g ai/ha, scale 0 to 100) | Plant response rating, Galium ([2]; 250 g ai/ha, scale 0 to 100) | Plant response rating, Crabgrass, Large [8, 17] | Plant response rating, Crabgrass, Large [8, 18] | Plant response rating, Crabgrass, Large [8, 19] | Plant response rating, Surinam Grass [10, 19] | Plant response rating, Cupgrass, Woolly [11, 19]
95: Plant response rating, Goosegrass [7, 18] | Plant response rating, Goosegrass [7, 19]
60: Plant response rating, Goosegrass [7, 17]
98: Plant response rating, Crabgrass, Large [8, 16]
0: Plant response rating, Cocklebur [3, 16] | Plant response rating, Cocklebur [3, 17] | Plant response rating, Cocklebur [3, 18] | Plant response rating, Cocklebur [3, 19] | Plant response rating, Sunflower [4, 20] | Plant response rating, Sunflower ([4]; 62 g ai/ha, scale 0 to 100) | Plant response rating, Sunflower ([4]; 125 g ai/ha, scale 0 to 100) | Plant response rating, Sunflower ([4]; 250 g ai/ha, scale 0 to 100) | Plant response rating, Ragweed [5, 16] | Plant response rating, Ragweed [5, 17] | Plant response rating, Ragweed [5, 18] | Plant response rating, Ragweed [5, 19] | Plant response rating, Bromegrass, Downy [6, 16] | Plant response rating, Kochia (kochia (Kochia scoparia); [16]) | Plant response rating, Kochia (kochia (Kochia scoparia); [17]) | Plant response rating, Kochia (kochia (Kochia scoparia); [18]) | Plant response rating, Pigweed [9, 16] | Plant response rating, Pigweed [9, 17] | Plant response rating, Soybean (soybean (Glycine max); [16]) | Plant response rating, Soybean (soybean (Glycine max); [17]) | Plant response rating, Soybean (soybean (Glycine max); [18]) | Plant response rating, Soybean (soybean (Glycine max); [19])
80: Plant response rating, Cupgrass, Woolly [11, 17] | Plant response rating, Cupgrass, Woolly [11, 18]
20: Plant response rating, Bromegrass, Downy [6, 17]

COCc1cc(-c2ccc(Br)cc2)nn1-c1c(O)cnn(C)c1=O [Compound 68]
80: Plant response rating, Ryegrass, Italian [1, 21] | Plant response rating, Crabgrass, Large [8, 21] | Plant response rating, Surinam Grass [10, 21] | Plant response rating, Surinam Grass [10, 22]
95: Plant response rating, Ryegrass, Italian [1, 22]
60: Plant response rating, Crabgrass, Large [8, 24] | Plant response rating, Cupgrass, Woolly [11, 22]
10: Ryegrass, Italian plant response rating ([1]; 16 g ai/ha)
5: Plant response rating, Goosegrass [7, 22]
85: Plant response rating, Crabgrass, Large [8, 22]
20: Crabgrass, Large plant response rating [8, 23]
30: Plant response rating, Cupgrass, Woolly [11, 21]
35: Surinam Grass plant response rating ([10]; 8 g ai/ha) | Surinam Grass plant response rating ([10]; 16 g ai/ha)
0: Ryegrass, Italian plant response rating ([1]; 8 g ai/ha) | Cocklebur plant response rating [3, 23] | Plant response rating, Cocklebur [3, 24] | Plant response rating, Cocklebur [3, 21] | Plant response rating, Cocklebur [3, 22] | Ragweed plant response rating ([5]; 8 g ai/ha) | Ragweed plant response rating ([5]; 16 g ai/ha) | Plant response rating, Ragweed [5, 21] | Plant response rating, Ragweed [5, 22] | Bromegrass, Downy plant response rating [6, 23] | Plant response rating, Bromegrass, Downy [6, 24] | Plant response rating, Bromegrass, Downy [6, 21] | Plant response rating, Bromegrass, Downy [6, 22] | Goosegrass plant response rating ([7]; 8 g ai/ha) | Goosegrass plant response rating ([7]; 16 g ai/ha) | Plant response rating, Goosegrass [7, 21] | Kochia plant response rating (kochia (Kochia scoparia); 8 g ai/ha) | Kochia plant response rating (kochia (Kochia scoparia); 16 g ai/ha) | Plant response rating, Kochia (kochia (Kochia scoparia); [21]) | Plant response rating, Kochia (kochia (Kochia scoparia); [22]) | Pigweed plant response rating ([9]; 8 g ai/ha) | Pigweed plant response rating ([9]; 16 g ai/ha) | Plant response rating, Pigweed [9, 21] | Plant response rating, Pigweed [9, 22] | Soybean plant response rating (soybean (Glycine max); 8 g ai/ha) | Soybean plant response rating (soybean (Glycine max); 16 g ai/ha) | Plant response rating, Soybean (soybean (Glycine max); [21]) | Plant response rating, Soybean (soybean (Glycine max); [22]) | Cupgrass, Woolly plant response rating [11, 23] | Plant response rating, Cupgrass, Woolly [11, 24]

— patent US20100267561A1, “HERBICIDAL PYRIDAZINONE DERIVATIVES” (priority 2007, published 2010)
